The values below come from ChEMBL document CHEMBL4699511, “Cedrol, a Sesquiterpene Alcohol, Enhances the Anticancer Efficacy of Temozolomide in Attenuating Drug Resistance via Regulation of the DNA Damage Response and MGMT Expression” (J Nat Prod, 2020).

The source made the active and inactive calls. The rule behind the calls is not given here.

For series [1], the system named is DBTRG-05MG. The experiment in a line: Induction of cell cycle arrest in human DBTRG-05MG cells assessed as accumulation at G0/G1 phase at 206 uM after 6 hrs by propidium iodide staining based flow cytometric analysis (reference value: 47.16 +/- 1.55%). In kind it is functional.
Series [2] has as its system DBTRG-05MG. Briefly: Induction of cell cycle arrest in human DBTRG-05MG cells assessed as accumulation at G0/G1 phase at 206 uM after 12 hrs by propidium iodide staining based flow cytometric analysis (reference value: 47.16 +/- 1.55%). The class given is functional.
Series [3] has as its system RG2. The experiment in a line: Induction of cell cycle arrest in rat RG2 cells assessed as accumulation at S phase at 206 uM after 12 hrs by propidium iodide staining based flow cytometric analysis (reference value: 20.15 +/- 2.44%). The class given is functional.
Series [4] deals with DBTRG-05MG. The experiment in a line: Induction of cell cycle arrest in human DBTRG-05MG cells assessed as p53 expression at 206 uM after 48 hrs by Western blot analysis (reference value: 1). In kind it is functional.
Series [5] deals with RG2. The experiment in a line: Induction of cell cycle arrest in rat RG2 cells assessed as CyclinB1 expression at 206 uM after 48 hrs by Western blot analysis (reference value: 1). In kind it is functional. On the technique in general: In western blotting, separated proteins are transferred to a membrane and probed.
The nature of series [6]: Effect on JNK expression in rat RG2 cells at 206 uM after 48 hrs by Western blot analysis (reference value: 1). In kind it is functional.
The subject of series [7] is DBTRG-05MG. Briefly: Antitumour activity against human DBTRG-05MG cells xenografted in BALB/c nude mouse assessed as increase in survival time at 5 mg/kg, ip for 5 days and measured every 2 days. In kind it is functional, organism-based. As to conditions: time 5.0 day. In general terms: A xenograft is tissue or cells of one species grown in another, often human tumour cells in immunodeficient mice.

Series [8] deals with DBTRG-05MG. The experiment in a line: Synergistic cytotoxicity against human DBTRG-05MG cells assessed as combination index at 89.9 uM after 48 hrs in presence of 103 uM TMZ by MTT assay. The class given is functional. (In general: Formazan colour is commonly taken as a measure of viable cells.)
In series [9] the test system is DBTRG-05MG. Briefly: Synergistic cytotoxicity against human DBTRG-05MG cells assessed as combination index at 112.4 uM after 48 hrs in presence of 206 uM TMZ by MTT assay. The class given is functional.
The subject of series [10] is DBTRG-05MG. Briefly: Synergistic cytotoxicity against human DBTRG-05MG cells assessed as combination index at 112.4 uM after 48 hrs in presence of 412.1 uM TMZ by MTT assay. The class given is functional.
Series [11] deals with RG2. The experiment in a line: Synergistic cytotoxicity against rat RG2 cells assessed as synergistic effect index at 134.9 uM after 48 hrs in presence of 412.1 uM TMZ by MTT assay. The class given is functional.
In series [12] the test system is RG2. The experiment in a line: Synergistic cytotoxicity against rat RG2 cells assessed as combination index at 89.9 uM after 48 hrs in presence of 103 uM TMZ by MTT assay. The class given is functional.
Series [13] relates to RG2. The experiment in a line: Synergistic cytotoxicity against rat RG2 cells assessed as combination index at 112.4 uM after 48 hrs in presence of 309 uM TMZ by MTT assay. The class given is functional.
Series [14] can be described thus: Synergistic cytotoxicity against rat CTX TNA2 cells assessed as synergistic effect index at 89.9 uM after 48 hrs in presence of 103 uM TMZ by MTT assay. The class given is cell-based. The conditions noted are these: ctx tna2, 48 h.
Series [15] in a line: Synergistic cytotoxicity against rat CTX TNA2 cells assessed as synergistic effect index at 89.9 uM after 48 hrs in presence of 206 uM TMZ by MTT assay. In kind it is cell-based. The conditions noted are these: ctx tna2, 48 h.
Series [16] relates to DBTRG-05MG. The experiment in a line: Induction of cell cycle arrest in human DBTRG-05MG cells assessed as accumulation at G0/G1 phase at 112.4 uM after 6 hrs by propidium iodide staining based flow cytometric analysis (reference value: 47.16 +/- 1.55%). The class given is functional.
Series [17] concerns DBTRG-05MG. The experiment in a line: Induction of cell cycle arrest in human DBTRG-05MG cells assessed as accumulation at S phase at 112.4 uM after 6 hrs by propidium iodide staining based flow cytometric analysis (reference value: 22.76 +/- 1.56%). In kind it is functional.
The subject of series [18] is DBTRG-05MG. Briefly: Induction of cell cycle arrest in human DBTRG-05MG cells assessed as accumulation at G2/M phase at 112.4 uM after 12 hrs by propidium iodide staining based flow cytometric analysis (reference value: 30.08 +/- 0.1%). The class given is functional.
Series [19] concerns DBTRG-05MG. The experiment in a line: Induction of cell cycle arrest in human DBTRG-05MG cells assessed as accumulation at S phase at 112.4 uM after 12 hrs in presence of TMZ by propidium iodide staining based flow cytometric analysis (reference value: 22.76 +/- 1.56%). In kind it is functional.
Series [20] relates to DBTRG-05MG. Briefly: Induction of cell cycle arrest in human DBTRG-05MG cells assessed as accumulation at G0/G1 phase at 112.4 uM after 24 hrs by propidium iodide staining based flow cytometric analysis (reference value: 47.16 +/- 1.55%). In kind it is functional.
Series [21] relates to DBTRG-05MG. Briefly: Induction of cell cycle arrest in human DBTRG-05MG cells assessed as accumulation at G0/G1 phase at 112.4 uM after 48 hrs by propidium iodide staining based flow cytometric analysis (reference value: 47.16 +/- 1.55%). In kind it is functional.
In series [22] the test system is RG2. The experiment in a line: Induction of cell cycle arrest in rat RG2 cells assessed as p21 expression at 112.4 uM after 48 hrs in presence of TMZ by Western blot analysis (reference value: 1). The class given is functional.
Series [23] can be described thus: Effect on p38 expression in human DBTRG-05MG cells at 112.4uM after 48 hrs by Western blot analysis (reference value: 1). In kind it is functional.
The nature of series [24]: Effect on JNK expression in human DBTRG-05MG cells at 112.4uM after 48 hrs in presence of TMZ by Western blot analysis (reference value: 1). The class given is functional.
Series [25] deals with DBTRG-05MG. The experiment in a line: Induction of apoptosis in human DBTRG-05MG cells assessed as Bax expression at 112.4 uM after 48 hrs by Western blot analysis (reference value: 1). In kind it is functional.
For series [26], the system named is RG2. The experiment in a line: Induction of apoptosis in rat RG2 cells assessed as Bax expression at 112.4 uM after 48 hrs by Western blot analysis (reference value: 1). In kind it is functional.
Series [27] concerns RG2. Briefly: Induction of apoptosis in rat RG2 cells assessed as phosphorylated PARP expression at 112.4 uM after 48 hrs by Western blot analysis (reference value: 1). The class given is functional.
Series [28] deals with DBTRG-05MG. Briefly: Induction of DNA damage in human DBTRG-05MG cells assessed as ATR phosphorylation at ser428 residues at 112.4 uM after 48 hrs by Western blot analysis (reference value: 1). The class given is functional.
The test system of series [29] is RG2. The experiment in a line: Induction of DNA damage in rat RG2 cells assessed as Chk2 phosphorylation at Thr68 at 112.4 uM after 48 hrs by Western blot analysis (reference value: 1). In kind it is functional.
The subject of series [30] is DBTRG-05MG. Briefly: Induction of DNA damage in human DBTRG-05MG cells assessed as Chk1 phosphorylation at ser345 residues at 112.4 uM after 48 hrs in presence of TMZ by Western blot analysis (reference value: 1). In kind it is functional.
For series [31], the system named is RG2. Briefly: Induction of DNA damage in rat RG2 cells assessed as Chk1 phosphorylation at ser345 at 112.4 uM after 48 hrs in presence of TMZ by Western blot analysis (reference value: 1). In kind it is functional.
Series [32] is described as follows: Effect of MDR1 expression in human DBTRG-05MG cells at 112.4 uM after 48 hrs by Western blot analysis. The class given is functional.
The nature of series [33]: Toxicity in BALB/c mouse xenografted with DBTRG-05MG cells assessed as reduction in body weight at 75 mg/kg, sc for 18 days co-treated with TMZ. In kind it is organism-based. As to conditions: in vivo, 432 h, time 18 day.

Consider `Cn1nnc2c(C(N)=O)ncn2c1=O` [TEMOZOLOMIDE], for which the results for the Activity in [1], in series [2] and in [3] were 40.56%, 42.28% and 22.12%, respectively. The entries for the “fold change (FC)” value in series [4], in series [5] and in series [6] were 2, 1.8 and 1, respectively. In addition, the outcome in [7] was Active.

As for `C[C@@H]1CC[C@H]2C(C)(C)[C@H]3C[C@@]12CC[C@@]3(C)O` [CEDROL], the CI was found to be 0.74 in series [8]; 0.5 in series [9]; 0.62 in series [10]; 0.88 in [12]; 0.9 in series [13]. In addition, the results for the Activity_index in series [11], in [14] and in series [15] were 0.9, 0.24 and 0.39, respectively. Moreover, the Activity is reported as 53.26% in [16]; 16.38% in [17]; 31.03% in series [18]; 16.75% in series [19]; 57.59% in series [20]; 53.13% in series [21]. In addition, the Activity result in series [33] was “Non-Toxic”. The “fold change (FC)” value was 2.5 in series [22]; 1.1 in series [23]; 0.4 in series [24]; 1.3 in [25]; 1.1 in series [26]; 0.6 in series [27]. In addition, the “fold change (FC)” value in series [28] turned out to be 1.5; in series [29], 1; in series [30], 1.4; in series [31] it was 3.5; in series [32] it was 1.2.
